Measured values as given in patent publication US9084770B2, “Modulation of insulin like growth factor I receptor expression in cancer” (Antisense Therapeutics, Ltd., priority 2008, dated 2015).

How the values were obtained:
IGF-IR mRNA = IGF-IR mRNA expression in transfected LNCaP and PC-3 cells, quantitative RT-PCR; assay type: cell-based, human; conditions: one day after treatment
Experimental: (§1) Established methods were used to test the activity of IGF-IR antisense oligonucleotide on LNCaP and PC-3 cell growth (crystal violet assay) and apoptosis (FACS). Dose- and sequence-specific suppression of IGF-IR mRNA and protein expression in ATL1101-treated LNCaP and PC3 PC cell lines in vitro were observed by QT-PCR and western blotting. Effects of the IGF-IR antisense oligonucleotide on various putative targets, including IGF-IR and downstream targets were evaluated using western blotting.
FIGS. 1A(i)-1A(ii) show the sequence-specific and dose-dependent suppression of IGF-IR mRNA expression levels by ATL1101 in LNCaP (FIG. 1A (i)) and PC-3 (FIG. 1A (ii)) cells. […] One day after treatment, total RNA was extracted, and IGF-IR mRNA expression was analyzed by quantitative RT-PCR. IGF-IR mRNA levels were normalized to levels of GAPDH mRNA and expressed here as mean±SE. ***, p<0.001 differ from control (oligofectamine only) by Student's t test. “Control” cells were treated with oligofectamine only. In LNCaP cells, IGF-IR expression was >70% suppressed by 10 nM ATL1101 and >90% at 200 nM ATL1101. In PC3 cells, IGF-IR expression was suppressed ˜40% at 10 nM ATL1101, >50% at 50 nM ATL1101 and ˜80% at 200 nM. Control oligodeoxynucleotide (ISIS 306064) did suppress IGF-IR mRNA expression but by less than 25% at maximal doses tested

PC3 cells [1] = experiment: PC3 cell viability, crystal violet assay; assay type: cell-based, human; conditions: FBS media, achieved by 100 nM, three days after treatment
Experimental: as §1
Cells were transfected with indicated concentrations of ATL1101, control oligodeoxynucleotides or oligofectamine as in FIGS. 1A(i)-1A(ii). Three days after treatment, cell viability was determined by crystal violet assay. Viable cell density was normalized to that of cells treated with oligofectamine. Points, means of triplicate analysis; bars, SE. *, p<0.05 differs from control oligodeoxynucleotide treatment group. **, p<0.01 differs from control oligodeoxynucleotide treatment group by Student's t test.

PC3 cells [2] = experiment: PC3 viable cells and apoptosis after transfection plus Paclitaxel
Experimental: PC3 cells cultured in vitro were transfected at concentrations of IGF-IR antisense oligonucleotide (ATL1101) or control oligodeoxynucleotide (ISIS 306064) ranging from 12.5 nM to 50 nM or oligofectamine control once per day on two sequential days. After the 2nd transfection, the PC3 cells were treated with concentrations of between 0.1 to 50 nM Paclitaxel. The number of viable cells remaining were determined 72 hours after Paclitaxel treatment.

PC3 tumors = experiment: PC-3 xenograft, tumor volume (monotherapy); assay type: in vivo, mice; conditions: 15 mg/kg i.p.
Experimental: One million PC-3 or LNCaP cells were injected subcutaneously in athymic mice. For LNCaP xenografts, when PSA values exceeded 50 ng/ml, mice were castrated and randomly selected for treatment with ATL1101 or control oligodeoxynucleotide (15 mg/kg) injected i.p. once daily for 7 days and 3 times per week thereafter. Blood samples were obtained from the tail vein of the mice once weekly to measure serum PSA by ELISA. For PC-3 xenografts, when tumors reached 100 mm^3, mice were randomly selected and treated with the same protocol as LNCaP.
The effects of IGF-IR antisense oligonucleotide treatment in LNCaP and PC-3 tumors in vivo are show in FIGS. 5A-5C. LNCaP cells were inoculated s.c. and when PSA values exceeded 50 ng/ml, mice were castrated and randomly selected for treatment with ATL1101 or control oligodeoxynucleotide (15 mg/kg) injected i.p. once daily for 7 days and 3 times per week thereafter. Blood samples were obtained from the tail vein of the mice once weekly to measure serum PSA by ELISA. PC-3 cells were inoculated s.c. and when tumors reached 100 mm^3, mice were randomly selected for treatment with the same protocol as LNCaP. Each point represents the mean tumor volume in each group containing 10 mice; bars, SE. * differs from control oligodeoxynucleotide treatment group (p<0.05) by Student's t test.

Substance: cgaaggaaacaatactccga (CGAAGGAAACAATACTCCGA; 2'-MOE modified, pattern not given here) [ISIS 175317, 2′-MOE-modified IGF-IR antisense oligonucleotide, also known as ATL1101]
- suppression of IGF-IR mRNA expression (IGF-IR mRNA; LNCaP cells, 10 nM): > 70%
- suppression of IGF-IR mRNA expression (IGF-IR mRNA; LNCaP cells, 200 nM): > 90%
- suppression of IGF-IR mRNA expression (IGF-IR mRNA; PC3 cells, 10 nM): ~40%
- suppression of IGF-IR mRNA expression (IGF-IR mRNA; PC3 cells, 50 nM): > 50%
- suppression of IGF-IR mRNA expression (IGF-IR mRNA; PC3 cells, 200 nM): ~80%
- maximum reduction of cell viability relative to control (PC3 cells [1]): ~60%
- fold higher Paclitaxel concentration (10 nM vs 1 nM) needed with 25 nM mismatch control for similar viability (PC3 cells [2]; 25 nM ATL1101 with 1 nM Paclitaxel): 10 fold
- amount of Paclitaxel required to induce tumor cell apoptosis (PC3 cells [2]; in combination with ATL1101): significantly reduced
- tumor volume compared to control oligodeoxynucleotide (PC3 tumors): significantly reduced
